PubChem BioAssay AID743117 (The Scripps Research Institute Molecular Screening Center, 2013)
The source made the active and inactive calls.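 Rule for the calls: active = 50% or more inhibition of both lipases LYPLA1 and LYPLA2, with off-target enzymes other than ABHD6 below 50%; inactive = below 50% on either lipase, or hitting an off-target enzyme.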

Assays:
Assay in all cases: competitive ABPP potency and off-target profiling of APT1/APT2 inhibitors – cell lysate, mouse brain membrane proteome, FP-Rh fluorescence, powders, selectivity assay for LYPLA1/LYPLA2 inhibitor project, late-stage follow-up (AID 743117)
LYPLA1 = conditions: gel-based ABPP FP-Rh fluorescence, at 100 µM (top of the series)
LYPLA2 = conditions: gel-based ABPP FP-Rh fluorescence, at 100 µM (top of the series)
[1] = target: Monoacylglycerol lipase ABHD6 (Mus musculus) (UniProt Q8R2Y0); conditions: gel-based ABPP FP-Rh fluorescence, measured here: ABHD6 Selectivity, anti-target concentration >50% inhibition, stronger effect = lower value
Monoacylglycerol lipase ABHD6 (Mus musculus), sequence (Q8R2Y0 whole entry, looked up): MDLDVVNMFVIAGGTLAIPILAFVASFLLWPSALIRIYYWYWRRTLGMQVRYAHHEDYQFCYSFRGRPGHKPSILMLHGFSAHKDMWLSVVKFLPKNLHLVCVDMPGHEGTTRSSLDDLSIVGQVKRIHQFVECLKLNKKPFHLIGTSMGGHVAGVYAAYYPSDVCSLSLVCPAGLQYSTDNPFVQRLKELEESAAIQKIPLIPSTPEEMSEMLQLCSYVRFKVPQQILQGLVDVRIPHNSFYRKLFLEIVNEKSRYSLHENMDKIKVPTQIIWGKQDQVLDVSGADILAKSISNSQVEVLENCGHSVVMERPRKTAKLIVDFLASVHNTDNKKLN

ABHD12 Selectivity = conditions: gel-based ABPP FP-Rh fluorescence, measured here: ABHD12 Selectivity, anti-target concentration >50% inhibition, stronger effect = lower value
FAAH Selectivity = conditions: gel-based ABPP FP-Rh fluorescence, measured here: FAAH Selectivity, anti-target concentration >50% inhibition, stronger effect = lower value
MAGL Selectivity = conditions: gel-based ABPP FP-Rh fluorescence, measured here: MAGL Selectivity, anti-target concentration >50% inhibition, stronger effect = lower value
ABHD4 Selectivity = ABHD4 Selectivity (UniProt Q8VD66); conditions: gel-based ABPP FP-Rh fluorescence, measured here: ABHD4 Selectivity, anti-target concentration >50% inhibition, stronger effect = lower value
ABHD4 Selectivity, sequence (Q8VD66 whole entry, looked up): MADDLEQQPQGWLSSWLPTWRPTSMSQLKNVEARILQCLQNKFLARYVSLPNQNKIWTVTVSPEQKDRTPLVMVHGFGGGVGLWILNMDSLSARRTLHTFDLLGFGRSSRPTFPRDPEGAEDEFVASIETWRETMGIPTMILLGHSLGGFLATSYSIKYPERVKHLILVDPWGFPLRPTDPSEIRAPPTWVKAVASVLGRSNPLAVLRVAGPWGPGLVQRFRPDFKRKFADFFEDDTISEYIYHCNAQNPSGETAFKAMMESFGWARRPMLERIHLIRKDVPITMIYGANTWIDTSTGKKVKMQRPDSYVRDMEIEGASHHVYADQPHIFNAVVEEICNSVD

APEH Selectivity = conditions: gel-based ABPP FP-Rh fluorescence, measured here: APEH Selectivity, anti-target concentration >50% inhibition, stronger effect = lower value

| Structure (SMILES) | inhibition (LYPLA1) | inhibition (LYPLA2) | concentration for >50% inhibition [1] [µM] | concentration for >50% inhibition (ABHD12 Selectivity) [µM] | concentration for >50% inhibition (FAAH Selectivity) [µM] | concentration for >50% inhibition (MAGL Selectivity) [µM] | concentration for >50% inhibition (ABHD4 Selectivity) [µM] | concentration for >50% inhibition (APEH Selectivity) [µM] |
| --- | --- | --- | --- | --- | --- | --- | --- | --- |
| CC(C)(C)OC(=O)N1CCN2C(=O)N(OC(=O)N3CCN(C(c4ccc(Cl)cc4)c4ccc(Cl)cc4)CC3)C(=O)C2C1 (stereo not given) | 60% (inactive) | 60% (inactive) | 0.1 |  |  |  |  |  |
| O=C(ON1C(=O)C2CN(C(=O)N3CCCC3)CCN2C1=O)N1CCC(CCc2ccc(Cl)cc2)CC1 (stereo not given) | 100% | 100% | 0.1 | 100 | 1 | 100 | 100 |  |
| O=C(ON1C(=O)C2CN(C(=O)N3CCOCC3)CCN2C1=O)N1CCC(CCc2ccc(Cl)cc2)CC1 (stereo not given) | 100% | 100% | 0.1 | 100 | 10 | 100 |  |  |
| CCN(C(=O)C1CCN(C(=O)ON2C(=O)C3CN(C(=O)OC(C)(C)C)CCN3C2=O)CC1)c1ccccc1 (stereo not given) | 100% (inactive) | 100% (inactive) | 0.1 |  |  |  |  |  |
| CC(C)(C)OC(=O)N1CCN2C(=O)N(OC(=O)N3CCCCC3)C(=O)C2C1 (stereo not given) | 25% (inactive) | 25% (inactive) | 0.1 |  |  |  |  | 100 |
| CC(C)(C)OC(=O)N1CCN2C(=O)N(OC(=O)N3CCN(CCc4ccccc4)CC3)C(=O)C2C1 (stereo not given) | 90% (inactive) | 75% (inactive) | 0.1 | 100 | 100 |  |  |  |
| COC(=O)C1CCN(C(=O)ON2C(=O)C3CN(C(=O)OC(C)(C)C)CCN3C2=O)CC1 (stereo not given) | 25% (inactive) | 25% (inactive) | 0.1 |  |  |  |  |  |
| CC(C)(C)OC(=O)N1CCN2C(=O)N(OC(=O)N3CCC(C(=O)Nc4ccccc4)CC3)C(=O)C2C1 (stereo not given) | 50% (inactive) | 25% (inactive) | 0.1 |  | 100 |  |  |  |
| O=C(ON1C(=O)C2CN(C(=O)N3CCCCC3)CCN2C1=O)N1CCC(CCc2ccc(Cl)cc2)CC1 (stereo not given) | 100% | 100% | 0.1 | 10 | 1 | 10 | 10 |  |
| CC(C)(C)OC(=O)N1CCN2C(=O)N(OC(=O)N3CCOCC3Cc3ccccc3)C(=O)C2C1 (stereo not given) | 0% (inactive) | 0% (inactive) | 0.1 |  |  |  |  |  |

The next lines start with the values.

| inhibition (LYPLA1) | inhibition (LYPLA2) | concentration for >50% inhibition [1] [µM] | concentration for >50% inhibition (ABHD12 Selectivity) [µM] | concentration for >50% inhibition (FAAH Selectivity) [µM] | concentration for >50% inhibition (MAGL Selectivity) [µM] | concentration for >50% inhibition (ABHD4 Selectivity) [µM] | concentration for >50% inhibition (APEH Selectivity) [µM] | Structure (SMILES) |
| --- | --- | --- | --- | --- | --- | --- | --- | --- |
| 100% | 100% | 0.1 | 10 | 10 | 100 |  |  | O=C(ON1C(=O)C2CN(C(=O)c3ccc(F)c([N+](=O)[O-])c3)CCN2C1=O)N1CCC(CCc2ccc(Cl)cc2)CC1 (stereo not given) |
| 100% | 100% | 0.1 | 10 | 1 | 10 | 100 |  | CC(C)(C)CC(=O)N1CCN2C(=O)N(OC(=O)N3CCC(CCc4ccc(Cl)cc4)CC3)C(=O)C2C1 (stereo not given) |
| 100% | 100% | 0.1 | 10 | 10 | 100 |  |  | Cc1ccc(C(=O)N2CCN3C(=O)N(OC(=O)N4CCC(CCc5ccc(Cl)cc5)CC4)C(=O)C3C2)cc1 (stereo not given) |
| 100% | 100% | 0.1 | 10 | 1 | 100 |  |  | CC(C)(C)OC(=O)N1CCN2C(=O)N(OC(=O)N3CCC(CCc4ccc(Cl)cc4)CC3)C(=O)C2C1 (stereo not given) |
| 100% | 100% | 0.1 | 10 | 10 |  |  |  | CN(C)c1ccc(C(=O)N2CCN3C(=O)N(OC(=O)N4CCC(CCc5ccc(Cl)cc5)CC4)C(=O)C3C2)cc1 (stereo not given) |
| 100% | 100% | 0.1 |  | 1 | 10 |  |  | O=C(Cc1ccccc1)N1CCN2C(=O)N(OC(=O)N3CCC(CCc4ccc(Cl)cc4)CC3)C(=O)C2C1 (stereo not given) |
| 100% | 100% | 0.1 | 10 | 10 | 100 | 100 |  | O=C(ON1C(=O)C2CN(C(=O)c3ccc(Br)cc3)CCN2C1=O)N1CCC(CCc2ccc(Cl)cc2)CC1 (stereo not given) |
| 100% | 100% | 0.1 | 10 | 10 | 10 |  |  | COc1ccc(C(=O)N2CCN3C(=O)N(OC(=O)N4CCC(CCc5ccc(Cl)cc5)CC4)C(=O)C3C2)cc1 (stereo not given) |
| 100% (inactive) | 100% (inactive) | 0.1 |  | 10 | 10 | 10 |  | O=C(ON1C(=O)C2CN(CCc3ccccc3)CCN2C1=O)N1CCC(CCc2ccc(Cl)cc2)CC1 (stereo not given) |
| 90% (inactive) | 90% (inactive) | 0.1 |  | 1 | 100 | 1 |  | O=C(ON1C(=O)C2CN(Cc3ccc(Br)cc3)CCN2C1=O)N1CCC(CCc2ccc(Cl)cc2)CC1 (stereo not given) |
